Experiment [1] has as its system HIV-1 CCR5 clinical isolate. The experiment in a line: ITI-367 combination assay, HIV-1 infectivity in tonsil cells, p24 ELISA. In kind it is cell-based. The note with it: combined with NRTi (AZT, d4T), NNRTi (efavirenz), Pi (saquinavir, nelfinavir), FIG. 5-9. As to the method:
The inhibitory potential of ITI-367 was tested using HIV-1 infectivity assays in combination with different FDA-approved drugs. […] Tonsil cells, isolated 24 hours post-surgical removal of tonsil tissue then frozen, were used as the target cells. Aliquots of the cells were thawed on the day of testing. There was no exogenous stimulation of the tonsil cells. The virus was a CCR5 clinical isolate at an approximate MOI of 1:40,000. Cells were incubated in the presence of drug for 17 hours prior to a 3.5 hour infection, at which time the virus inoculum was removed through three complete media exchanges. The cells were in the presence of drug before, during, and after all media removals. […]
Cells were cultured at 37° C. and 5% CO2 Samples (150 μl) were harvested on days 3, 5, 7, and 10 post-infection for HIV-1 p24 content analysis by ELISA. […] Uninfected, untreated cells were counted at each sampling to monitor tonsil cell growth kinetics.
Background: An ELISA detects its analyte on a solid surface through an enzyme-linked reagent.

Experiment [2] concerns HIV-1 CCR5 clinical isolate. Nature of the experiment: inhibition of HIV-1 infection of T lymphocytes (tonsil cells), p24 ELISA. The experiment is classed as cell-based. As for the experimental part:
T lymphocytes were isolated from tonsil tissue 24 hours post-surgical removal and then frozen. Aliquots of all were thawed on day of testing. There was no exogenous stimulation of the tonsil cells. The virus was a CCR5 clinical isolate at an approximate MOI of 1:40,000. Cells were incubated in the presence of ITI-367 for 19 hours prior to a 2.5 hour infection, at which time the virus inoculum was removed followed by two complete media exchanges. Cell culture media was Iscove's Media with 2 mM L-Glutamine, 100 U/ml Penicillin, 100 ug/ml Streptomycin, and 8% heat-inactivated human serum AB. The drug concentrations used were 20 uM, 10 uM, 1 uM and 0.1 uM, prepared from a 50 mM DMSO stock. A no drug infection control (media only) was also evaluated in parallel. Replicates of four or six cultures were used to assess virus production from ITI-367 treated or control samples, respectively. Virus production was evaluated on days 3, 6, 10, 13, & 17 post-infection, by specific ELISA for HIV-1 core antigen (p24). Also, in FIG. 4, virus production was evaluated as a function of drug concentrations at 0, 0.1, 0.5, 1, 5 and 10 μM.

Experiment [3] deals with T1, association of the viral matrix protein (p 17) with karyopherin α (Human immunodeficiency virus type 1 group M subtype B, UniProt P04591).
T1 construct: The PIC is comprised of a number of viral proteins including MA (p17); endogenous in cells; host or cells: cytoplasmic extracts of human monocyte-derived macrophages infected with HIV-1 (virus-made protein in the PIC)
Nature of the experiment: cell free assay of PIC binding to karyopherin α (HIV DNA in the Kα fraction). The note with it: cytoplasmic extracts of HIV-1 infected human monocyte-derived macrophages; FIG. 1. The source says:
The inhibition of a molecular target by ITI-367 is illustrated in FIG. 1. The molecular target for nuclear entry of HIV-1 is the association of the viral matrix protein (p 17) carrying the nuclear localization sequences, with the intracellular protein karyopherin α. To validate the activity of ITI-367, a cell free assay was used whereby human monocyte-derived macrophages collected from fresh blood samples were infected with HIV-1. At the predetermined time cells were lysed and the cytoplasmic extracts collected. The extracts contain HIV-1 pre-integration complexes (PIC) that represent the structure within which the HIV-1 cDNA is imported into the nucleus. The PIC is comprised of a number of viral proteins including MA (p17). […] Therefore, this is a cell free assay. The extent of binding was measured by evaluating the levels of HIV DNA found in the Kα fraction in the presence or absence of test compound.

The test system of experiment [4] is ADA strain of HIV-1. The experiment in a line: inhibition of HIV-1 infection in monocyte-derived macrophages. The note with it: 10, 1, 0.1, 0.01 μM; over a two week period; FIG. 2. In kind it is cell-based. As for the experimental part: Macrophages were prepared as described above. After a week of culture in M-CSF, cells were washed several times in RPMI and pre-incubated in complete (NHS, pen/strep, L-glutamine) medium with compound ITI-367 in appropriate concentration overnight (10, 1, 0.1, and 0.01 μM). [ITI-367 having been dissolved in DMSO at 10 mM concentration which was used as a stock solution (stored at −70° C.). From the stock solutions a 50 μM solution of compound in RPMI was prepared and stored at 4° C.]. After overnight incubation with compound, cells were infected with 500,000 cpm (RT activity) of the ADA strain of HIV-1 in 500 μl of RPMI with or without the compound. Two hours after infection, cells were washed with RPMI and incubated in fresh complete medium with the appropriate concentration of compound. Every 3-4 days, half of the medium was collected and used to quantify the level of virus production. Cultures were supplemented with additional medium. Infected macrophages were maintained for 2-3 weeks.

As for `COc1ccccc1-c1noc(=O)n1-c1cccc(C(F)(F)F)c1` [ITI-367], the “combination effect on inhibition of HIV-1 replication” value in experiment [1] is on record as “synergistic effect”. For the same compound, in experiment [2] (20, 10, 1, 0.1 uM, p24 over a seventeen day period, FIG. 3), the “inhibition of HIV-1 infection of T lymphocytes” value is “inhibition of HIV-1 infection”. Besides, the “inhibition of replication of HIV-1 in Primary Lymphocytes” value in experiment [2] (virus production as a function of drug concentration 0-10 μM, FIG. 4) is “inhibition”. The “inhibition of association of PIC (MA p17) with karyopherin α” value in experiment [3] was “inhibition”. The “inhibition of HIV-1 infection in monocyte-derived macrophages” value in experiment [4] is “inhibition of HIV-1 infection”.

For the origin of these results see patent US20060264475A1, “COMPOUNDS, COMPOSITIONS AND METHODS FOR INHIBITING OR TREATING HIV-1” (CYTOKINE PHARMASCIENCES, INC., priority 2004, published 2006).
